Laboratory results from patent publication US9149038B2, “4-amino-6-(heterocyclic)picolinates and 6-amino-2-(heterocyclic)pyrimidine-4-carboxylates and their use as herbicides” (Dow AgroSciences LLC, priority 2013, dated 2015).
Like-named read-outs stand apart in the source and are kept apart here.

Columns and labels:
[1] = system: Key Broadleaf Weed and Crop Species; assay: Post-Emergent Test II: postemergent herbicidal activity, visual rating after 14 d (Table 7); format: in vivo; settings: post-emergence, 336 h; for pest or weed control at 35 g/ha: 35 g ai/ha; for pest or weed control at 70 g/ha: 70 g ai/ha; for pest or weed control at 140 g/ha: 140 g ai/ha
Summary of the method: (§1)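 Post-emergence foliar spray, 187 L/ha, first/second true leaf stage plants in potting mix (pH 6.0-6.8). Rates: top rate and 2-fold serial dilutions to 1/16×. Solvent-blank controls. Readout: visual % kill at 14 d.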

[2] = system: Key Grass and Sedge Weeds as well as Grass Crops; assay: Post-Emergent Test II: postemergent herbicidal activity, visual rating after 14 d (Table 8); format: in vivo; settings: post-emergence, 336 h; for pest or weed control at 35 g/ha: 35 g ai/ha; for pest or weed control at 70 g/ha: 70 g ai/ha; for pest or weed control at 140 g/ha: 140 g ai/ha
Summary of the method: as §1

[3] = lambsquarters (Chenopodium album), read-out: Visual Growth Reduction (%) 14 Days After Application CHEAL
[4] = oilseed rape, canola (Brassica napus), read-out: Visual Growth Reduction (%) 14 Days After Application BRSNN
[5] = redroot pigweed (Amaranthus retroflexus), read-out: Visual Growth Reduction (%) 14 Days After Application AMARE
[6] = sunflower (Helianthus annuus), read-out: Visual Growth Reduction (%) 14 Days After Application HELAN
[7] = velvetleaf (Abutilon theophrasti), read-out: Visual Growth Reduction (%) 14 Days After Application ABUTH
[8] = wild poinsettia (Euphorbia heterophylla), read-out: Visual Growth Reduction (%) 14 Days After Application EPHHL
[9] = barnyardgrass (Echinochloa crus-galli), read-out: Visual Growth Reduction (%) 14 Days After Application ECHCG
[10] = giant foxtail (Setaria faberi), read-out: Visual Growth Reduction (%) 14 Days After Application SETFA
[11] = maize, corn (Zea mays), read-out: Visual Growth Reduction (%) 14 Days After Application ZEAMX
[12] = rice (Oryza sativa), read-out: Visual Growth Reduction (%) 14 Days After Application ORYSA
[13] = wheat, spring (Triticum aestivum), read-out: Visual Growth Reduction (%) 14 Days After Application TRZAS
[14] = yellow nutsedge (Cyperus esculentus), read-out: Visual Growth Reduction (%) 14 Days After Application CYPES

Row | Compound | pest or weed control at 35 g/ha [1, 3] [%] | pest or weed control at 70 g/ha [1, 3] [%] | pest or weed control at 140 g/ha [1, 3] [%] | pest or weed control at 35 g/ha [1, 4] [%] | pest or weed control at 70 g/ha [1, 4] [%] | pest or weed control at 140 g/ha [1, 4] [%] | pest or weed control at 35 g/ha [1, 5] [%] | pest or weed control at 70 g/ha [1, 5] [%] | pest or weed control at 140 g/ha [1, 5] [%] | pest or weed control at 35 g/ha [1, 6] [%] | pest or weed control at 70 g/ha [1, 6] [%] | pest or weed control at 140 g/ha [1, 6] [%] | pest or weed control at 35 g/ha [1, 7] [%] | pest or weed control at 70 g/ha [1, 7] [%] | pest or weed control at 140 g/ha [1, 7] [%] | pest or weed control at 35 g/ha [1, 8] [%] | pest or weed control at 70 g/ha [1, 8] [%] | pest or weed control at 140 g/ha [1, 8] [%] | pest or weed control at 35 g/ha [2, 9] [%] | pest or weed control at 70 g/ha [2, 9] [%] | further results
1 | COC(=O)c1nc(-c2ccc3c(c2F)OC(F)(F)O3)nc(N)c1Cl [Compound 58] | 95 to 100 | 95 to 100 | 95 to 100 | 0 to 29 | 0 to 29 | 60 to 74 | 0 to 29 | 45 to 59 | 95 to 100 | 75 to 84 | 75 to 84 | 75 to 84 | 0 to 29 | 0 to 29 | 75 to 84 | 95 to 100 | 95 to 100 | 95 to 100 | 75 to 84 | 85 to 94 | pest or weed control at 140 g/ha [2, 9]: 95 to 100%; pest or weed control at 35 g/ha [2, 10]: 30 to 44%; pest or weed control at 70 g/ha [2, 10]: 45 to 59%; pest or weed control at 140 g/ha [2, 10]: 45 to 59%; pest or weed control at 35 g/ha [2, 11]: 45 to 59%; pest or weed control at 70 g/ha [2, 11]: 60 to 74%; pest or weed control at 140 g/ha [2, 11]: 75 to 84%; pest or weed control at 35 g/ha [2, 12]: 0 to 29%; pest or weed control at 70 g/ha [2, 12]: 0 to 29%; pest or weed control at 140 g/ha [2, 12]: 0 to 29%; pest or weed control at 35 g/ha [2, 13]: 0 to 29%; pest or weed control at 70 g/ha [2, 13]: 0 to 29%; pest or weed control at 140 g/ha [2, 13]: 0 to 29%; pest or weed control at 35 g/ha [2, 14]: 60 to 74%; pest or weed control at 70 g/ha [2, 14]: 60 to 74%; pest or weed control at 140 g/ha [2, 14]: 60 to 74%
2 | COC(=O)c1nc(-c2ccc3c(c2)OC(F)(F)O3)c(F)c(N)c1OC [Compound 24] | 0 to 29 | 0 to 29 | 0 to 29 | 0 to 29 | 0 to 29 | 0 to 29 | 0 to 29 | 0 to 29 | 0 to 29 | 0 to 29 | 0 to 29 | 0 to 29 | 0 to 29 | 0 to 29 | 0 to 29 | 75 to 84 | 95 to 100 | 95 to 100 | 60 to 74 | 85 to 94 | pest or weed control at 140 g/ha [2, 9]: 95 to 100%; pest or weed control at 35 g/ha [2, 10]: 0 to 29%; pest or weed control at 70 g/ha [2, 10]: 0 to 29%; pest or weed control at 140 g/ha [2, 10]: 0 to 29%; pest or weed control at 35 g/ha [2, 11]: 60 to 74%; pest or weed control at 70 g/ha [2, 11]: 75 to 84%; pest or weed control at 140 g/ha [2, 11]: 75 to 84%; pest or weed control at 35 g/ha [2, 12]: 0 to 29%; pest or weed control at 70 g/ha [2, 12]: 0 to 29%; pest or weed control at 140 g/ha [2, 12]: 0 to 29%; pest or weed control at 35 g/ha [2, 13]: 0 to 29%; pest or weed control at 70 g/ha [2, 13]: 0 to 29%; pest or weed control at 140 g/ha [2, 13]: 30 to 44%; pest or weed control at 35 g/ha [2, 14]: 95 to 100%; pest or weed control at 70 g/ha [2, 14]: 95 to 100%; pest or weed control at 140 g/ha [2, 14]: 95 to 100%
3 | COC(=O)c1nc(-c2ccc3c(c2F)OC(F)(F)O3)c(Cl)c(N)c1Cl [Compound 4] | 0 to 29 | 0 to 29 | 0 to 29 | 0 to 29 | 0 to 29 | 0 to 29 | 0 to 29 | 0 to 29 | 0 to 29 | 0 to 29 | 45 to 59 | 60 to 74 | 0 to 29 | 0 to 29 | 0 to 29 | 0 to 29 | 0 to 29 | 0 to 29 | 0 to 29 | 0 to 29 | pest or weed control at 140 g/ha [2, 9]: 0 to 29%; pest or weed control at 35 g/ha [2, 10]: 0 to 29%; pest or weed control at 70 g/ha [2, 10]: 0 to 29%; pest or weed control at 140 g/ha [2, 10]: 0 to 29%; pest or weed control at 35 g/ha [2, 11]: 0 to 29%; pest or weed control at 70 g/ha [2, 11]: 0 to 29%; pest or weed control at 140 g/ha [2, 11]: 0 to 29%; pest or weed control at 35 g/ha [2, 12]: 0 to 29%; pest or weed control at 70 g/ha [2, 12]: 0 to 29%; pest or weed control at 140 g/ha [2, 12]: 0 to 29%; pest or weed control at 35 g/ha [2, 13]: 0 to 29%; pest or weed control at 70 g/ha [2, 13]: 0 to 29%; pest or weed control at 140 g/ha [2, 13]: 0 to 29%; pest or weed control at 35 g/ha [2, 14]: 0 to 29%; pest or weed control at 70 g/ha [2, 14]: 0 to 29%; pest or weed control at 140 g/ha [2, 14]: 0 to 29%
